Our source for the Activity values is ChEMBL document CHEMBL1153462, “Ulmosides A and B: flavonoid 6-C-glycosides from Ulmus wallichiana, stimulating osteoblast differentiation assessed by alkaline phosphatase” (Bioorg Med Chem Lett, 2009).

Activity calls are given as the source filed them. No cut-off for these calls is given here.

One assay concerns Calvarial cell. The assay is described as follows: Osteogenic activity in neonatal Sprague-Dawley rat calvarial cell culture assessed as stimulation of differentiation. It is filed as functional, cell-based.
In a further assay the test system is Osteoblast. The assay is described as follows: Osteogenic activity in neonatal Sprague-Dawley rat osteoblasts assessed as stimulation of alkaline phosphatase activity at 100 pM to 10 nM. It counts as functional, cell-based.

Take `O=c1c(O)c(-c2ccc(O)c(O)c2)oc2cc(O)c([C@@H]3O[C@H](CO)[C@@H](O)[C@H](O)[C@H]3O)c(O)c12`: the outcome in the assay on Calvarial cell and in the assay on Osteoblast was Active.

Regarding `O=C1c2c(cc(O)c([C@@H]3O[C@H](CO)[C@@H](O)[C@H](O)[C@H]3O)c2O)O[C@@H](c2ccc(O)cc2)[C@@H]1O`, the result in the assay with Calvarial cell and with Osteoblast was Active.

As to `O=C1C[C@H](c2ccc(O)cc2)Oc2cc(O)c([C@@H]3O[C@H](CO)[C@@H](O)[C@H](O)[C@H]3O)c(O)c21`, the outcome with Calvarial cell and in the assay on Osteoblast was Active.

Regarding `O=C1c2c(cc(O)c([C@@H]3O[C@H](CO)[C@@H](O)[C@H](O)[C@H]3O)c2O)O[C@@H](c2ccc(O)c(O)c2)[C@@H]1O`, the result with Calvarial cell and in the assay on Osteoblast was Active.
